The assay concerns Euschistus heros (Neotropical Brown Stink Bug). Description: Euschistus heros (Neotropical Brown Stink Bug) contact/feeding activity on sprayed soybean plants. It counts as in vivo. Particulars: comparative example, mortality 5 days after infestation. Here is the method:
Euschistus heros (Neotropical Brown Stink Bug) (Contact/Feeding Activity)
2 week old soybean plants are sprayed in a turn table spray chamber with the diluted spray solutions. After drying, 2 soybean seeds are added and plants are infested with 10 N-2 nymphs of the neotropical brown stink bug Euschistus heros in plastic test boxes. Boxes are incubated in a climate chamber at 25° C. and 60% RH. Evaluation is done 5 days after infestation on mortality.

The structures appear in SMILES notation.

In the case of `O=C(NCC(F)(F)F)N1CCc2cc(C3=NOC(c4cc(Cl)cc(Cl)c4)(C(F)(F)F)C3)ccc21` (stereo not drawn) [Reference compound], the Control/% stood at 0% (application rate 3.0 ppm), 0% (application rate 12.5 ppm) and 5% (application rate 50 ppm).
Regarding `O=C(CC(F)(F)F)NC1CCc2cc(C3=NOC(c4cc(Cl)cc(Cl)c4)(C(F)(F)F)C3)ccc21` (stereo not drawn) [Compound of the invention], the Control/% by setting is: (application rate 3.0 ppm) 75%; (application rate 12.5 ppm) 100%; (application rate 50 ppm) 100%.

The record behind these values is patent US20150152070A1, “METHODS OF PEST CONTROL IN SOYBEAN” (Syngenta Participations AG, priority 2012, published 2015).
